The results in this text go back to patent publication US9517994B2, “Antibacterial agents: phloroglucinol derivatives” (Rutgers, the State University of New Jersey, priority 2012, dated 2016).

Each structure is given as a SMILES string. ≈ marks a conversion by molar mass, not a printed value.

Test [1] relates to Moraxella catarrhalis ATCC 25238. The experiment in a line: MIC, spiral gradient endpoint assay (GC II agar, 5% CO2). The settings on record: ATCC25238, read-out: MIC M. catarrhalis 25238.
Test [2] has as its target S. aureus RNA polymerase core enzyme + S. aureus σA (Staphylococcus aureus, UniProt P47768+Q2G0N5). The experiment in a line: Fluorescence-detected assay of inhibition of Staphylococcus aureus RNA polymerase. The format is biochemical. The note with it: read-out: IC50 Sa RNAP. The procedure: (§1) Fluorescence-detected RNA polymerase assays with E. coli RNA polymerase were performed by a modification of the procedure of Kuhlman et al., 2004 (Kuhlman, P., Duff, H. & Galant, A. (2004) Anal. Biochem. 324, 183-190). Reaction mixtures contained (20 μl): 0-100 nM test compound, 75 nM E. coli RNA polymerase σ^70 holoenzyme, 20 nM 384 by DNA fragment containing the bacteriophage T4 N25 promoter, 100 μM ATP, 100 μM GTP, 100 μM UTP, 100 μM CTP, 50 mM Tris-HCl, pH 8.0, 100 mM KCl, 10 mM MgCl2, 1 mM DTT, 10 μg/ml bovine serum albumin, and 5.5% glycerol. Reaction components other than DNA and NTPs were pre-incubated for 10 mm at 37° C. Reactions were carried out by addition of DNA and incubation for 5 min at 37° C., followed by addition of NTPs and incubation for 60 min at 37° C. DNA was removed by addition of 1 μl 5 mM CaCl2 and 2 U DNaseI (Ambion, Inc.), followed by incubation for 90 min at 37° C. RNA was quantified by addition of 100 μl RiboGreen RNA Quantitation Reagent (Invitrogen, Inc.; 1:500 dilution in Tris-HCl, pH 8.0, 1 mM EDTA), followed by incubation for 10 min at 25° C., followed by measurement of fluorescence intensity [excitation wavelength=485 nm and emission wavelength=535 nm; QuantaMaster QMI spectrofluorometer (PTI, Inc.)]. IC50 was defined as the concentration of inhibitor resulting in 50% inhibition of RNA polymerase activity.
Fluorescence-detected RNA polymerase assays with S. aureus RNA polymerase were performed as in Example 17.1, using reaction mixtures containing (20 μl): 0-100 nM test compound, 75 nM S. aureus RNA polymerase core enzyme, 300 nM S. aureus σ^A, 20 nM 384 by DNA fragment containing the bacteriophage T4 N25 promoter, 100 μM ATP, 100 μM GTP, 100 μM UTP, 100 μM CTP, 40 mM Tris-HCl, pH 8.0, 80 mM NaCl, 5 mM MgCl2, 2.5 mM DTT, and 12.7% glycerol. IC50 was defined as the concentration of inhibitor resulting in 50% inhibition of RNA polymerase activity.

The test system of test [3] is Escherichia coli D21f2tolC. Nature of the test: MIC, spiral gradient endpoint assay. The note with it: 16 h, read-out: MIC E. coli D21f2tolC.
The subject of the next test is H. influenzae 49247. Nature of the test: MIC, spiral gradient endpoint assay (GC II agar, 5% CO2). The settings on record: for MIC: Haemophilus influenzae, 49247, read-out: MIC H. influenzae 49247.
Test [4] has as its system Bacillus anthracis Vollum 1B. The experiment in a line: microbe, parasite or virus in culture. The format is cell-based. The settings on record: VOLLUM1B, read-out: MIC B. anthracis Vollum-1b.
Another test relates to Burkholderia mallei CHN7. The experiment in a line: microbe, parasite or virus in culture. The class given is cell-based. The note with it: CHN7, read-out: MIC B. mallei CHN7.
Test [5] deals with M tuberculosis RNA polymerase core enzyme + M. tuberculosis σA (Mycobacterium tuberculosis, UniProt P9WGY7+P9WGY9). Nature of the test: Fluorescence-detected assay of inhibition of Mycobacterium tuberculosis RNA polymerase. The format is biochemical. The note with it: read-out: IC50 Mt RNAP. As for the experimental part: as §1
Fluorescence-detected RNA polymerase assays with M tuberculosis RNA polymerase were performed as in Example 17.1, using reaction mixtures containing (20 μl): 0-100 nM test compound, 75 nM M tuberculosis RNA polymerase core enzyme, 300 nM M. tuberculosis σ^A, 20 nM 384 by DNA fragment containing the bacteriophage T4 N25 promoter, 100 μM ATP, 100 μM GTP, 100 μM UTP, 100 μM CTP, 40 mM Tris-HCl, pH 8.0, 80 mM NaCl, 5 mM MgCl2, 2.5 mM DTT, and 12.7% glycerol. IC50 was defined as the concentration of inhibitor resulting in 50% inhibition of RNA polymerase activity.

Test [6] has as its system Haemophilus influenzae ATCC 33391. Nature of the test: MIC, spiral gradient endpoint assay (GC II agar, 5% CO2). The note with it: ATCC33391, read-out: MIC H. influenzae 33391.
The subject of test [7] is Enterococcus faecalis ATCC 19433. The experiment in a line: MIC, spiral gradient endpoint assay. The note with it: ATCC19433, 16 h, read-out: MIC E. faecalis 19433.
Test [8] deals with Francisella tularensis SCHU4. The experiment in a line: microbe, parasite or virus in culture. The class given is cell-based. The note with it: SCHU4, read-out: MIC F. tularensis SCHU4.
Test [9] addresses E. coli RNA polymerase σ70 holoenzyme (Escherichia coli, UniProt P0A8T7+P0A8V2). The experiment in a line: Fluorescence-detected assay of inhibition of Escherichia coli RNA polymerase. The class given is biochemical. The note with it: RiboGreen fluorescence, read-out: IC50 Ec RNAP. As for the experimental part:
as §1

The test system of test [10] is Staphylococcus aureus ATCC 12600. Nature of the test: MIC, spiral gradient endpoint assay. The note with it: ATCC12600, 16 h, read-out: MIC S. aureus 12600.
Test [11] deals with Mycobacterium tuberculosis H37Rv. Nature of the test: MIC, microplate Alamar Blue assay. The settings on record: read-out: MIC M. tuberculosis H37Rv.

Sequence of M tuberculosis RNA polymerase core enzyme + M. tuberculosis σA (P9WGI1 whole entry, the tested form may be a part): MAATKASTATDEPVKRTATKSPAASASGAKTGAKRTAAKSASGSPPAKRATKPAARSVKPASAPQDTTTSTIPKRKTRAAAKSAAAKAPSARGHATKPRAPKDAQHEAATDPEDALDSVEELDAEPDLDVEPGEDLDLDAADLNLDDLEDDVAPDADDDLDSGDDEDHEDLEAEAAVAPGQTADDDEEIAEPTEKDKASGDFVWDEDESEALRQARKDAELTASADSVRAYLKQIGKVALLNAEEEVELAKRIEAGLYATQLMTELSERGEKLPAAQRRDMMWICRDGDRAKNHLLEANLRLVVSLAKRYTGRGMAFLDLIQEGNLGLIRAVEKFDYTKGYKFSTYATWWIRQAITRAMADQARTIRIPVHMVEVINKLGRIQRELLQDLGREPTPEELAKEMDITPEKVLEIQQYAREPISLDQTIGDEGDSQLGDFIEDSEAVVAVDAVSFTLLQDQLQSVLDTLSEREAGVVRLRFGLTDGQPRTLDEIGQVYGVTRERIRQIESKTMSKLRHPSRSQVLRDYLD
Sequence of M tuberculosis RNA polymerase core enzyme + M. tuberculosis σA (P9WGY5 whole entry, further chain, the tested form may be a part): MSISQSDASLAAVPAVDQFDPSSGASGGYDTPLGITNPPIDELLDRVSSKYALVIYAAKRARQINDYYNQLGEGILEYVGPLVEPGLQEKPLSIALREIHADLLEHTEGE
Sequence of M tuberculosis RNA polymerase core enzyme + M. tuberculosis σA (P9WGZ1 whole entry, further chain, the tested form may be a part): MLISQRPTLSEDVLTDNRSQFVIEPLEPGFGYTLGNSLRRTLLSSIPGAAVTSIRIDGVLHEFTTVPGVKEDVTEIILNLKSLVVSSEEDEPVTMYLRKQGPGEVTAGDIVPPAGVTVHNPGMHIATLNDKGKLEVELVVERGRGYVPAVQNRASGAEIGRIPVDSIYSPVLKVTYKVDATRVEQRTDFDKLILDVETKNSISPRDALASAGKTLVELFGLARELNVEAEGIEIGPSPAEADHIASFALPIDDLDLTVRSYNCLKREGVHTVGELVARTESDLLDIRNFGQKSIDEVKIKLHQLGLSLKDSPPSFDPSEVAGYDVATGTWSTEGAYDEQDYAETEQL
Sequence of M tuberculosis RNA polymerase core enzyme + M. tuberculosis σA (P9WGY7 whole entry, the tested form may be a part): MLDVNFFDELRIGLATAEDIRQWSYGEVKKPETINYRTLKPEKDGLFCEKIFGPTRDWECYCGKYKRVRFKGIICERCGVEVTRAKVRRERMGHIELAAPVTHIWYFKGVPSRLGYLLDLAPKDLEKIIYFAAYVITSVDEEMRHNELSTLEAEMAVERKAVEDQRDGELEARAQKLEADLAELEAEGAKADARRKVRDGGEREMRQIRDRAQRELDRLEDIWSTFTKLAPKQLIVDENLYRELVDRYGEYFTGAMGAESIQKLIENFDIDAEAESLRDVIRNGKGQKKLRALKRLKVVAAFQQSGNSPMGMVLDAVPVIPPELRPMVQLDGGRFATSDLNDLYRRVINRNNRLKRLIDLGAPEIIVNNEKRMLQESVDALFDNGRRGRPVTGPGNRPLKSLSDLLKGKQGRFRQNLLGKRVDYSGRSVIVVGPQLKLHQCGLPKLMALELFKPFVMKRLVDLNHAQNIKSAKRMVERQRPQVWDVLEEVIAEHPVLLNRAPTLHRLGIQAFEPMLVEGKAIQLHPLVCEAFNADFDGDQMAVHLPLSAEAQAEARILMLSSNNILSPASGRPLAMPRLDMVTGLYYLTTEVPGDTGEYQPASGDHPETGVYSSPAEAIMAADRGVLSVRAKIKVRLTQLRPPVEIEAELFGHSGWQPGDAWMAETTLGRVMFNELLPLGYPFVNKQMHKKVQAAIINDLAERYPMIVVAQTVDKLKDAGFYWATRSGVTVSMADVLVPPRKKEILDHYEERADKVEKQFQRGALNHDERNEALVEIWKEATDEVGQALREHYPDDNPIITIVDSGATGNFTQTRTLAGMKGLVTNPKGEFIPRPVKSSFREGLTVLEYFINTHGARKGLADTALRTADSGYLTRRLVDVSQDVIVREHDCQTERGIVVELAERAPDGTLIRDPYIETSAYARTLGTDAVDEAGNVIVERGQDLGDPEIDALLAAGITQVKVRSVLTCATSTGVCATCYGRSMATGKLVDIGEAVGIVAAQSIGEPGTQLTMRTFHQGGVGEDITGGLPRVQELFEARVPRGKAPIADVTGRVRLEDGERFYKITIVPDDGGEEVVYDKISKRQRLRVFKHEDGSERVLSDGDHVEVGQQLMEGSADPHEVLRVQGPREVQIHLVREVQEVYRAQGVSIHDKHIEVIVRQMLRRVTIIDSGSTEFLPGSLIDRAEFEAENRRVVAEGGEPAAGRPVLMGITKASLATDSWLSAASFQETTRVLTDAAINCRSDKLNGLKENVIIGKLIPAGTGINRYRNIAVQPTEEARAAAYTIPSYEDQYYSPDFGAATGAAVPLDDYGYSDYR
Sequence of M tuberculosis RNA polymerase core enzyme + M. tuberculosis σA (P9WGY9 whole entry, the tested form may be a part): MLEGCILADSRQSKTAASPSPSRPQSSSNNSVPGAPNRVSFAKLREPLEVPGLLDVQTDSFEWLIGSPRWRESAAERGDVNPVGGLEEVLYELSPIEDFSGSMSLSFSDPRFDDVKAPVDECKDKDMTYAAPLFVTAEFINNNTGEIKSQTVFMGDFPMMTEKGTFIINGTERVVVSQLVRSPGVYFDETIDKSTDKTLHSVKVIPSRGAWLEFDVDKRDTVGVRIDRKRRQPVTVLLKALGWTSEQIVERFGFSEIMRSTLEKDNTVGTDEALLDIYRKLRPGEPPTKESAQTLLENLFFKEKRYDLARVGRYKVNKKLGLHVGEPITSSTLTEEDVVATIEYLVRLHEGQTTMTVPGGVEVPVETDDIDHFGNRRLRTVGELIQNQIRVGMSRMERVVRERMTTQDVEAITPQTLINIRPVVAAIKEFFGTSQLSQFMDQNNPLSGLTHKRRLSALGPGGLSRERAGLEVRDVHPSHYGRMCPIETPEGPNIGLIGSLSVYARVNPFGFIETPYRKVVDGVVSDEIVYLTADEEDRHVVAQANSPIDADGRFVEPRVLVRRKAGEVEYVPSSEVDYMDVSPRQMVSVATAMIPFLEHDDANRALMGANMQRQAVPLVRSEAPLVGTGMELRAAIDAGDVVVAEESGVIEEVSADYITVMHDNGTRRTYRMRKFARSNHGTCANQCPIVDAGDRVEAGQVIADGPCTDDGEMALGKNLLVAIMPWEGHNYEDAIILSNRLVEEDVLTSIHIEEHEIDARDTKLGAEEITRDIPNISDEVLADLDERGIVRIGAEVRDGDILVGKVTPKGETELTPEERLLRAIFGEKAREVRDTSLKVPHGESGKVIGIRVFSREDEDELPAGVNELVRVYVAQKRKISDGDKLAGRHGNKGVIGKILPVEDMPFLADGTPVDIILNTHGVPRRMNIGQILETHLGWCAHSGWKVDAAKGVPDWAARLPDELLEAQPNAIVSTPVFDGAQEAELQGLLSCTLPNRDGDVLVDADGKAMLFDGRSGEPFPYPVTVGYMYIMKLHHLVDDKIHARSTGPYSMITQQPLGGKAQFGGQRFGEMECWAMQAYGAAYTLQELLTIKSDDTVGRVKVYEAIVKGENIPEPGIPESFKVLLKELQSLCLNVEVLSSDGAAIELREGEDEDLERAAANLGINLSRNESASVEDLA

For the compound `O=C(CCc1cccc(Cl)c1)c1c(O)cc(O)cc1O` [0MTK12, 3-(3-chlorophenyl)propanoyl-phloroglucinol], the MIC in [1] was greater than 40 µg/mL; in test [3], 6 µg/mL (≈ 20.5 µM); in the test with H. influenzae 49247, greater than 40 µg/mL; in test [4] it was 12.5 µg/mL (≈ 42.7 µM); with Burkholderia mallei CHN7, 50 µg/mL (≈ 171 µM); in test [6], greater than 40 µg/mL. Moreover, the MIC was 32 µg/mL (≈ 109 µM) in test [7], 3.12 µg/mL (≈ 10.7 µM) in [8], 16 µg/mL (≈ 54.7 µM) in test [10] and 50 µg/mL (≈ 171 µM) in test [11]. The IC50 in test [2] amounted to 9 µM; in test [5] it was 4.8 µM; in [9], 2.6 µM.
As for `O=C(CCc1ccc(F)cc1)c1c(O)cc(O)cc1O` [OMTK21, 3-(4-fluorophenyl)propanoyl-phloroglucinol], the results for the IC50 in test [2], in [5] and in test [9] were 7.2 µM, 4.4 µM and 2.4 µM, respectively. For the same compound, the MIC in [3] was 10 µg/mL (≈ 36.2 µM); in [7] it was greater than 40 µg/mL; in test [10] it was greater than 40 µg/mL.
On to `O=C(CCc1ccc(C(F)(F)F)cc1)c1c(O)cc(O)cc1O` [OMTK23, 3-(4-trifluoromethylphenyl)propanoyl-phloroglucinol], for which the IC50 in [2] was found to be 4.8 µM; in test [5] it was 2.3 µM; in test [9], 1.6 µM. Besides, the MIC is 5 µg/mL (≈ 15.3 µM) in test [3], 25 µg/mL (≈ 76.6 µM) in test [7] and 12 µg/mL (≈ 36.8 µM) in test [10].
Consider `O=C(CCc1ccccc1Cl)c1c(O)cc(O)cc1O` [0MTK11, 3-(2-chlorophenyl)propanoyl-phloroglucinol], for which the MIC was greater than 40 µg/mL in test [1]; 8 µg/mL (≈ 27.3 µM) in test [3]; 6.25 µg/mL (≈ 21.4 µM) in test [4]; 50 µg/mL (≈ 171 µM) in the test with Burkholderia mallei CHN7; greater than 40 µg/mL in test [6]; greater than 40 µg/mL in test [7]. The figures for the MIC in test [8], in test [10] and in test [11] were 3.12 µg/mL (≈ 10.7 µM), 16 µg/mL (≈ 54.7 µM) and greater than 50 µg/mL, respectively. In addition, the results for the IC50 in test [2], in test [5] and in test [9] were 11 µM, 2.5 µM and 3.5 µM, respectively. Further, in the test on H. influenzae 49247 (Haemophilus influenzae, 49247, read-out: MIC50 H. influenzae 49247), the MIC50 worked out at 35 µg/mL (≈ 120 µM).
As for `COc1ccccc1CCC(=O)c1c(O)cc(O)cc1O` [OMTK14, 3-(2-methoxyphenyl)propanoyl-phloroglucinol], the MIC in [1] is greater than 40 µg/mL; in test [3], 12 µg/mL (≈ 41.6 µM); with H. influenzae 49247, greater than 40 µg/mL; in [4], 25 µg/mL (≈ 86.7 µM); with Burkholderia mallei CHN7 it was greater than 50 µg/mL; in test [6] it was greater than 40 µg/mL. The MIC is greater than 40 µg/mL in [7], 12.5 µg/mL (≈ 43.4 µM) in test [8], greater than 40 µg/mL in [10] and greater than 50 µg/mL in [11]. The values for the IC50 in test [2], in [5] and in test [9] were 7.2 µM, 9.9 µM and 2.7 µM, respectively.
With `O=C(CCc1ccc(C(F)(F)F)cc1C(F)(F)F)c1c(O)cc(O)cc1O` [0MTK32, 3-(2,4-bis(trifluoromethyl)phenyl)propanoyl-phloroglucinol], the values for the IC50 in test [2], in test [5] and in test [9] were 3.7 µM, 3.3 µM and 2 µM, respectively. Also, the MIC in test [3] is 2.2 µg/mL (≈ 5.58 µM); in [7], 6.6 µg/mL (≈ 16.7 µM); in test [10], 3.6 µg/mL (≈ 9.13 µM).
With `O=C(CCc1ccc(Br)cc1)c1c(O)cc(O)cc1O` [OMTK22, 3-(4-bromophenyl)propanoyl-phloroglucinol], the IC50 was determined as 3.7 µM in [2], 1.7 µM in [5] and 1.3 µM in test [9]. Further, the MIC was found to be 5 µg/mL (≈ 14.8 µM) in test [3], 22 µg/mL (≈ 65.2 µM) in test [7] and 10 µg/mL (≈ 29.7 µM) in test [10].
Consider `O=C(CCc1ccc(Cl)cc1)c1c(O)cc(O)cc1O` [0MTK13, 3-(4-chlorophenyl)propanoyl-phloroglucinol], for which the MIC in test [1] worked out at 32 µg/mL (≈ 109 µM); in test [3] it was 2.7 µg/mL (≈ 9.22 µM); in the test with H. influenzae 49247, 32 µg/mL (≈ 109 µM); in [4], 6.25 µg/mL (≈ 21.4 µM); in the test with Burkholderia mallei CHN7 it was 12.5 µg/mL (≈ 42.7 µM); in test [6], 32 µg/mL (≈ 109 µM). The MIC amounted to 11 µg/mL (≈ 37.6 µM) in test [7], 3.12 µg/mL (≈ 10.7 µM) in test [8], 4 µg/mL (≈ 13.7 µM) in test [10] and 25 µg/mL (≈ 85.4 µM) in [11]. Moreover, the IC50 in test [2] turned out to be 4.3 µM; in test [5] it was 2.3 µM; in test [9] it was 1.1 µM.
Take `CCc1ccc(CCC(=O)c2c(O)cc(O)cc2O)cc1` [0MTK26, 3-(4-ethylphenyl)propanoyl-phloroglucinol]: the values for the IC50 in test [2], in [5] and in [9] were 5.4 µM, 3.6 µM and 1.5 µM, respectively. Moreover, the MIC in [3] is 6.2 µg/mL (≈ 21.7 µM); in [7] it was 36 µg/mL (≈ 126 µM); in test [10] it was 12.5 µg/mL (≈ 43.7 µM).
Turning to `Cc1ccccc1CCC(=O)c1c(O)cc(O)cc1O` [OMTK18, 3-(2-methylphenyl)propanoyl-phloroglucinol], the IC50 is 7.9 µM in [2], 3.9 µM in test [5] and 2.7 µM in [9]. For the same compound, the MIC is 11 µg/mL (≈ 40.4 µM) in test [3], greater than 40 µg/mL in [7] and greater than 40 µg/mL in [10].
As for `O=C(CCc1ccccc1C(F)(F)F)c1c(O)cc(O)cc1O` [0MTK31, 3-(2-(trifluoromethyl)phenyl)propanoyl-phloroglucinol], the IC50 in test [2] was found to be 4.8 µM; in [5], 3.5 µM; in test [9], 1.9 µM. The MIC in test [3] amounted to 6 µg/mL (≈ 18.4 µM); in test [7], 22 µg/mL (≈ 67.4 µM); in test [10], 14 µg/mL (≈ 42.9 µM).
Regarding `CC(C)(C)c1ccc(CCC(=O)c2c(O)cc(O)cc2O)cc1` [0MTK28, 3-((4-tert-butyl)phenyl)propanoyl-phloroglucinol], the IC50 in [2] is 6.4 µM; in test [5] it was 4.6 µM; in test [9], 2.7 µM. Further, the MIC in [3] amounted to 3 µg/mL (≈ 9.54 µM); in [7], 11 µg/mL (≈ 35 µM); in test [10], 6.9 µg/mL (≈ 21.9 µM).
Regarding `CC(C)c1ccc(CCC(=O)c2c(O)cc(O)cc2O)cc1` [0MTK27, 3-(4-isopropylphenyl)propanoyl-phloroglucinol], the values for the IC50 in [2], in [5] and in test [9] were 5.4 µM, 4.9 µM and 2.3 µM, respectively. The MIC in test [3] was found to be 4.3 µg/mL (≈ 14.3 µM); in [7], 16 µg/mL (≈ 53.3 µM); in test [10], 9.8 µg/mL (≈ 32.6 µM).
As to `Cc1cc(F)ccc1CCC(=O)c1c(O)cc(O)cc1O` [0MTK30, 3-(4-fluoro-2-methylphenyl)propanoyl-phloroglucinol], the IC50 in [2] amounted to 4.1 µM; in test [5], 3.7 µM; in test [9] it was 1.8 µM. Further, the MIC in test [3] was 7 µg/mL (≈ 24.1 µM); in test [7] it was 26 µg/mL (≈ 89.6 µM); in test [10], 16 µg/mL (≈ 55.1 µM).
